Source: article PMC11009276, “Design, synthesis, biological assessment and molecular modeling studies of novel imidazothiazole-thiazolidinone hybrids as potential anticancer and anti-inflammatory agents” (Scientific Reports, 2024)

Columns and labels:
[1] = system: carrageenan-induced rat hind paw edema; experiment: Carrageenan-induced rat paw edema inhibition assay; type: in vivo; settings: after 4 h; for % inhibition (paw edema) / Increase in Paw volume SEM: oral 0.0314 mmol/kg; for Increase in Paw volume SEM: n = 6; for Activity relative to standard drug: relative to diclofenac sodium
Method: The anti-inflammatory efficacy of the newly synthesised compounds was assessed using a carrageenan-induced rat hind paw edema technique The animals were divided into groups of six at random, fasted for 24 h before to the experiment, and given free access to water. 0.5% CMC solution was given to the control group only. […] One hour after the administration of the test compounds and the reference drug, 0.1 mL of a 1% carrageenan solution in saline was subcutaneously injected into the subplantar area of the right hind paw of each rat. The right hind paw volume was measured using a Digital Plethysmometer PLM-01 Plus (Orchid Scientifics and Innovatives India Pvt. Ltd., Mumbai, India) at 3 and 4 h after carrageenan therapy. The following calculation was used to compute the percent edema inhibition from the mean effect in the treated and control animals: Percent edema inhibition=Vc-Vt/Vc×100 where Vc denotes the mean increase in paw volume in the control group of rats and Vt denotes the mean increase in paw volume in rats treated with test chemicals. After a 15-day washout period, the same group of rats utilised for the anti-inflammatory activity were employed for the ulcerogenic activity.

[2] = system: A549 cells; experiment: DAPI nuclear staining; type: cell-based, human; settings: IC50 dose, 48 h
Method: A549 cells were treated with compound 4a, 4b, 4c and morphological changes were observed after nuclear staining with 4′,6‐diamidino‐2‐phenylindole (DAPI).
Cellular nuclear morphology was evaluated by fluorescence microscopy following DAPI staining. […] After incubation, the cells were again gently washed with PBS and the coverslips were mounted on sterile slides using a DPX mounting medium. The prepared slides were observed under a fluorescence microscope (Nikon) having a blue or cyan filter at × 40 magnification.

[3] = system: gastric mucosa tissue of rats; experiment: Lipid peroxidation in gastric mucosa; type: in vivo, rat; settings: oral 0.0942 mmol/kg
Method: The compounds screened for ulcerogenic potential were also analysed for lipid peroxidation. Lipid peroxidation is measured as nmolMDA/100 mg of gastric mucosa tissue. […] Thus, it was concluded that protection of gastric mucosa might be related to the inhibition of lipid peroxidation.
Lipid peroxidation in the gastric mucosa was determined using the reported method by Ohkawa H. et al.[61]. The gastric mucosa of the glandular area was scraped off using glass slides after the stomach had been examined for ulcers. Gastric mucosa was weighed (100 mg) and homogenised in 1.8 cm^3 of ice-cold solution of KCl (1.15%). The homogenate is further added with 0.2 cm^3 of 8.1% sodium dodecyl sulphate (SDS), 1.5 cm^3 of acetate buffer, and 1.5 cm^3 of 0.8% thiobarbituric acid. After adding all buffers, the mixture was kept for incubation for 60 min over water bath, maintaining the temperature of the water bath at 95 °C. Later, the mixture was allowed to cool and then extracted with a freshly prepared mixture of n-butanol and pyridine (15:1 v/v), the organic layer obtained was centrifuged at 3000 rpm for about 10 min. The organic layer was separated out and visualised on UV–visible spectrophotometer. Concentration was measured using the following formula: Concentration=Absorbance×volume×109÷1.56×10^5×1000
Results obtained were expressed as nmol MDA/100 mg tissue and extinction coefficient (1.56 × 10^5) cm^-1 M^-1.

[4] = system: MCF7 human breast cancer cell line; experiment: MTT cytotoxicity assay, MCF7; settings: MCF7, 72 h, read-out: IC50 (µM) (Mean ± SD) MCF7
Method: (§1) All the synthesized imidazothiazole derivatives linked with thiazolidinone moiety (4a-g and 5a-d, Fig. 4) were evaluated for their in- vitro anticancer activities against three selected human cancer cell lines namely non-small lung (A549), breast (MCF7) and colorectal (HCT116) and one normal human embryonic kidney cell line (HEK293) using the 3‐(4,5‐Dimethylthiazol‐2‐yl)-2,5‐Diphenyltetrazolium Bromide (MTT) assay method. […] Compounds were tested against selected cancer cell lines namely A549 (Lung), MCF-7(Breast) HCT116 (Colon), normal human embryonic kidney cell line (HEK293) and procured from National Centre for Cell Science Complex (NCCS) Pune University, India. Into a 96 well plate, cells were seeded into each well (3 × 10^3 cells/ per well), the plate were incubated for 24 h, after that the culture medium was discarded and replaced with fresh medium along with our newly synthesized test compounds in different concentration (10, 20, 40 and 80 µM) followed by incubation for 72 h. […] Finally, each well is treated with DMSO (100 µL) and swirled to dissolve the dark crystals of formazan. ELISA reader was used to measure the absorbance at 570 nm. The experiment was repeated three times; Graph pad prism and excel are used to calculate the IC50 values[51].

[5] = system: A549 cells; experiment: Wound healing (migration) assay; type: cell-based, human; settings: 30 µM, 0 and 24 h, vs control
Method: Migration of cells is directly associated with tumor progression and metastasis of cancerous cells. […] An artificial scratch or wound was created on the monolayer of A549 cells using a 200µL sterile pipette tip. […] The images of cells to fill up the artificial scratch or wounds were photographed at 0 and 24 h after the treatment and the responses were visualized using phase contrast microscopy.
Wound healing was performed with A549 cells. On six-well plates, cells were seeded at a density of 5 × 10^5 cells per well and cultured as a confluent monolayer for 24 h. A […] pipette sterile tip was used to make an artificial scratch or wound on the monolayer of A549 cells after a 24-h period, and well plates were then washed with PBS to eliminate any non-adherent cells. The therapy was then administered at the appropriate concentrations of chemicals 4c and 4b. A Nikon phase contrast microscope was used to take pictures of the movement of cells over the scratched region at 0 and 24 h in two or three randomly chosen fields.

[6] = system: A549 cells; experiment: AO/EB dual staining apoptosis assay; type: cell-based, human; settings: vs control
Method: An early and late apoptotic along with necrotic cells were also observed in active compounds (4a-c) treated A549 cells (Fig. 9b).
A549 cell lines were cultured in six-well plates at 4 × 10^4 cells/well and then these cells were treated with 1.56 and 12.5 μg mL^−1 of […] for 48 h respectively. Further, Cells were harvested and stained with AO-EtBr dye mix (1:1 v/v from 100 μg mL^−1 in PBS) and studied using a fluorescent microscope.

[7] = system: HCT116 human colorectal cancer cell line; experiment: MTT cytotoxicity assay, HCT116; settings: HCT-116, 72 h, read-out: IC50 (µM) (Mean ± SD) HCT116
Method: as §1

[8] = system: gastric mucosa of rats; experiment: Ulcerogenic activity; type: in vivo, rat; settings: oral 0.0942 mmol/kg
Method: The Compounds (4a-d, 5a-b) which were found potent as anti-inflammatory agents were further screened for their ulcerogenic risk. The compounds and the standard drug were tested at an oral dose of 0.0942 mmol/kg.
Animals were divided into different groups consisting of 6 rats per group. […] The control group received 0.5% of the carboxymethylcellulose (CMC) solution. […] 24 h before the test compounds were administered. After receiving the medication, the rats were given regular food for 17 h and then sacrificed. The stomach was taken out and opened along its greater curvature before being gently cleansed by dipping it in normal saline and then washing it with distilled water. The mucosal injury/damage was examined thoroughly using a magnifying glass. The mucosal injury in each stomach was scored using the following score system: 0.5: Redness; 1.0: Spot Ulcers; 1.5: Hemorrhagic Streaks; 2.0: Ulcers > 3 but 5, 3.0: Ulcers > 5. The severity index (SI) of stomach mucosal injury was calculated as the mean score of each treated group minus the mean score of the control group.

[9] = system: A549 (Lung) cancer cell line; experiment: MTT cytotoxicity assay, A549; settings: Homo sapiens, A549, 72 h, read-out: IC50 (µM) (Mean ± SD) A549
Method: as §1

In the case of `CC1SC(c2c(-c3ccccc3)nc3sccn23)N(c2ccc(F)cc2)C1=O` (stereo not drawn) [Compound 4a, 3-(4-Fluorophenyl)-5-methyl-2-(6-phenylimidazo[2,1-b]thiazol-5-yl) thiazolidin-4-one], the “% inhibition (paw edema)” value [1] is reported as 79.45%, the “Increase in Paw volume SEM” value [1] is reported as 0.141 ± 0.025 and the “Activity relative to standard drug” value [1] is reported as 98.91. For the same compound, the “Nuclear morphological change (DAPI)” value [2] was “chromatin condensation and nuclear fragmentation and margination of nucleus”, the Lipid peroxidation [3] was 5.98 ± 0.114 Nmol MDA/100 mg tissue and the IC50 [4] was 22.8 ± 5.5 µM. For the same compound, the “Migration of A549 cells (wound healing)” value [5] was “significant suppression in the migration of A549 cells”, the “Apoptotic cells (AO/EB dual staining)” value [6] was “number of apoptotic cells enhanced” and the IC50 [7] was 23.7 ± 0.85 µM. The “Mean ulcer severity index ± SEM” value [8] was 1.167 ± 0.210 and the IC50 [9] was 22.5 ± 2.04 µM.

With `CC1SC(c2c(-c3ccccc3)nc3sccn23)N(c2ccc(Cl)cc2)C1=O` (stereo not drawn) [Compound 4b, 3-(4-Chlorophenyl)-5-methyl-2-(6-phenylimidazo[2,1-b]thiazol-5-yl) thiazolidin-4-one] the “% inhibition (paw edema)” value [1] was 81.34%, the “Increase in Paw volume SEM” value [1] was 0.128 ± 0.018 and the “Activity relative to standard drug” value [1] was 101.27. For the same compound, the “Nuclear morphological change (DAPI)” value [2] was “chromatin condensation and nuclear fragmentation and margination of nucleus”, the Lipid peroxidation [3] was 4.12 ± 0.159 Nmol MDA/100 mg tissue and the IC50 [4] was 29.2 ± 7.1 µM. For the same compound, the “Migration of A549 cells (wound healing)” value [5] was “significant suppression in the migration of A549 cells”, the “Apoptotic cells (AO/EB dual staining)” value [6] was “number of apoptotic cells enhanced” and the IC50 [7] was 45 ± 1.02 µM. The “Mean ulcer severity index ± SEM” value [8] was 0.416 ± 0.153 and the IC50 [9] was 21.1 ± 1.04 µM.

`CC1SC(c2c(-c3ccccc3)nc3sccn23)N(c2ccc(Br)cc2)C1=O` (stereo not drawn) [Compound 4c, 3-(4-Bromophenyl)-5-methyl-2-(6-phenylimidazo[2,1-b]thiazol-5-yl) thiazolidin-4-one] was tested, and the “% inhibition (paw edema)” value [1] was 80.17%, the “Increase in Paw volume SEM” value [1] was 0.136 ± 0.014 and the “Activity relative to standard drug” value [1] was 99.82. For the same compound, the “Nuclear morphological change (DAPI)” value [2] was “chromatin condensation and nuclear fragmentation and margination of nucleus”, the Lipid peroxidation [3] was 5.37 ± 0.060 Nmol MDA/100 mg tissue and the IC50 [4] was 18.7 ± 0.88 µM. The “Migration of A549 cells (wound healing)” value [5] was “significant suppression in the migration of A549 cells”, the “Apoptotic cells (AO/EB dual staining)” value [6] was “number of apoptotic cells enhanced” and the IC50 [7] was 23.2 ± 1.89 µM. The “Mean ulcer severity index ± SEM” value [8] was 0.500 ± 0.182 and the IC50 [9] was 10.7 ± 0.4 µM.
